Data taken from ChEMBL document CHEMBL2034968, “Discovery of novel urea-based hepatitis C protease inhibitors with high potency against protease-inhibitor-resistant mutants” (J Med Chem, 2012).

Legend:
[1] = test system: Hepatitis C virus; experiment: Ratio of EC50 for danoprevir to EC50 for compound against Hepatitis C virus subtype 1b harboring protease D168V mutant by transient replicon assay; format: functional, Hepacivirus hominis, genotype 1b
[2] = test system: Hepatitis C virus; experiment: Ratio of EC50 for danoprevir to EC50 for compound against Hepatitis C virus subtype 1b harboring protease R155K mutant by transient replicon assay; format: functional, Hepacivirus hominis, genotype 1b
[3] = test system: Rattus norvegicus; experiment: Hepatic clearance in rat at 1 mg/kg, iv; format: ADME, organism-based, Liver; parameters: dose 1 mg/kg, route intravenous; settings: in vivo
[4] = test system: Rattus norvegicus; experiment: AUC in rat at 1 mg/kg, iv; format: ADME, organism-based, Plasma; parameters: dose 1 mg/kg, route intravenous; settings: in vivo
[5] = test system: Rattus norvegicus; experiment: AUC in rat at 5 mg/kg, po; format: ADME, organism-based, Plasma; parameters: dose 5 mg/kg, route oral; settings: in vivo
[6] = Terminal half life in rat at 5 mg/kg, po; format: ADME, organism-based; parameters: dose 5 mg/kg, route oral; settings: in vivo, read-out: beta t1/2 (converted)
[7] = Maximum drug absorption in rat at 5 mg/kg, po; format: ADME, organism-based; parameters: dose 5 mg/kg, route oral; settings: in vivo, read-out: Drug absorption
[8] = test system: Rattus norvegicus; experiment: Oral bioavailability in rat at 5 mg/kg; format: ADME, organism-based; settings: in vivo
[9] = AUC in rat liver at 5 mg/kg, po; format: ADME, organism-based; parameters: dose 5 mg/kg, route oral
[10] = Terminal half life in rat liver at 5 mg/kg, po; format: ADME, organism-based; parameters: dose 5 mg/kg, route oral; settings: read-out: beta t1/2 (converted)
[11] = test system: Rattus norvegicus; experiment: Dose normalized AUC in rat at 5 mg/kg, po; format: ADME, organism-based; parameters: dose 5 mg/kg, route oral; settings: in vivo
[12] = test system: Liver; experiment: Ratio of drug level in liver to plasma in rat at 5 mg/kg, po; format: ADME, organism-based; parameters: dose 5 mg/kg, route oral; settings: other tissue
[13] = Inhibition of HCV 1a protease 1a domain; parameters: species or system Hepacivirus hominis
[14] = test system: Hepatitis C virus; experiment: Antiviral activity against Hepatitis C virus subtype 1b by stable replicon assay; format: functional, organism-based, Hepacivirus hominis; settings: genotype 1b
[15] = test system: Hepatitis C virus; experiment: Antiviral activity against Hepatitis C virus subtype 1a by stable replicon assay; format: functional, organism-based, Hepacivirus hominis
[16] = test system: Hepatitis C virus; experiment: Antiviral activity against Hepatitis C virus subtype 1b harboring protease D168V mutant by transient replicon assay; format: functional, organism-based, Hepacivirus hominis; settings: genotype 1b
[17] = test system: Hepatitis C virus; experiment: Antiviral activity against Hepatitis C virus subtype 1b harboring protease D168A mutant by transient replicon assay; format: functional, organism-based, Hepacivirus hominis; settings: genotype 1b
[18] = test system: Hepatitis C virus; experiment: Antiviral activity against Hepatitis C virus subtype 1b harboring protease A156V mutant by transient replicon assay; format: functional, organism-based, Hepacivirus hominis; settings: genotype 1b
[19] = test system: Hepatitis C virus; experiment: Antiviral activity against Hepatitis C virus subtype 1b harboring protease A156T mutant by transient replicon assay; format: functional, organism-based, Hepacivirus hominis; settings: genotype 1b
[20] = test system: Hepatitis C virus; experiment: Antiviral activity against Hepatitis C virus subtype 1b harboring protease A156S mutant by transient replicon assay; format: functional, organism-based, Hepacivirus hominis; settings: genotype 1b
[21] = test system: Hepatitis C virus; experiment: Antiviral activity against wild type Hepatitis C virus subtype 1b by transient replicon assay; format: functional, organism-based, Hepacivirus hominis; settings: genotype 1b
[22] = test system: Hepatitis C virus; experiment: Antiviral activity against Hepatitis C virus subtype 1b harboring protease R155K mutant by transient replicon assay; format: functional, organism-based, Hepacivirus hominis; settings: genotype 1b
[23] = test system: Hepatitis C virus; experiment: Ratio of EC50 for TMC-435350 to EC50 for compound against wild type Hepatitis C virus subtype 1b by transient replicon assay; format: functional, Hepacivirus hominis, genotype 1b
[24] = test system: Hepatitis C virus; experiment: Ratio of EC50 for TMC-435350 to EC50 for compound against Hepatitis C virus subtype 1b harboring protease A156S mutant by transient replicon assay; format: functional, Hepacivirus hominis, genotype 1b
[25] = test system: Hepatitis C virus; experiment: Ratio of EC50 for TMC-435350 to EC50 for compound against Hepatitis C virus subtype 1b harboring protease A156T mutant by transient replicon assay; format: functional, Hepacivirus hominis, genotype 1b
[26] = test system: Hepatitis C virus; experiment: Ratio of EC50 for TMC-435350 to EC50 for compound against Hepatitis C virus subtype 1b harboring protease A156V mutant by transient replicon assay; format: functional, Hepacivirus hominis, genotype 1b
[27] = test system: Hepatitis C virus; experiment: Ratio of EC50 for TMC-435350 to EC50 for compound against Hepatitis C virus subtype 1b harboring protease D168A mutant by transient replicon assay; format: functional, Hepacivirus hominis, genotype 1b
[28] = test system: Hepatitis C virus; experiment: Ratio of EC50 for TMC-435350 to EC50 for compound against Hepatitis C virus subtype 1b harboring protease D168V mutant by transient replicon assay; format: functional, Hepacivirus hominis, genotype 1b
[29] = test system: Hepatitis C virus; experiment: Ratio of EC50 for TMC-435350 to EC50 for compound against Hepatitis C virus subtype 1b harboring protease R155K mutant by transient replicon assay; format: functional, Hepacivirus hominis, genotype 1b
[30] = test system: Hepatitis C virus; experiment: Ratio of EC50 for danoprevir to EC50 for compound against wild type Hepatitis C virus subtype 1b by transient replicon assay; format: functional, Hepacivirus hominis, genotype 1b
[31] = test system: Hepatitis C virus; experiment: Ratio of EC50 for danoprevir to EC50 for compound against Hepatitis C virus subtype 1b harboring protease A156S mutant by transient replicon assay; format: functional, Hepacivirus hominis, genotype 1b
[32] = test system: Hepatitis C virus; experiment: Ratio of EC50 for danoprevir to EC50 for compound against Hepatitis C virus subtype 1b harboring protease A156T mutant by transient replicon assay; format: functional, Hepacivirus hominis, genotype 1b
[33] = test system: Hepatitis C virus; experiment: Ratio of EC50 for danoprevir to EC50 for compound against Hepatitis C virus subtype 1b harboring protease A156V mutant by transient replicon assay; format: functional, Hepacivirus hominis, genotype 1b
[34] = test system: Hepatitis C virus; experiment: Ratio of EC50 for danoprevir to EC50 for compound against Hepatitis C virus subtype 1b harboring protease D168A mutant by transient replicon assay; format: functional, Hepacivirus hominis, genotype 1b

COc1ccc2c(O[C@@H]3C[C@H]4C(=O)N[C@]5(C(=O)NS(=O)(=O)C6CC6)C[C@H]5/C=C\CCCCC[C@H](NC(=O)N5CCCCC5)C(=O)N4C3)cc(-c3nc(C(C)C)cs3)nc2c1C
Ratio EC50 [1]: 0.3
Ratio EC50 [2]: 14
CLH [3]: 83.4 mL/min/kg
AUC [4]: 0.268 µg·h/mL
AUC [5]: 0.266 µg·h/mL
half-life [6]: 1.16 h
Fa [7]: 20%
F [8]: 9.4%
AUC [9]: 308 µg·h/mL
half-life [10]: 8.1 h
AUC/dose [11]: 0.053 kg·µg·h/mL/mg
Ratio [12]: 1158
IC50 [13]: 5 nM
EC50 [14]: 0.5 nM
EC50 [15]: 0.4 nM
EC50 [16]: 79 nM
EC50 [17]: 32 nM
EC50 [18]: 7 nM
EC50 [19]: 2 nM
EC50 [20]: 0.1 nM
EC50 [21]: 0.04 nM
EC50 [22]: 6 nM
Ratio EC50 [23]: 23
Ratio EC50 [24]: 3.5
Ratio EC50 [25]: 43
Ratio EC50 [26]: 49
Ratio EC50 [27]: 5
Ratio EC50 [28]: 2
Ratio EC50 [29]: 9
Ratio EC50 [30]: 5
Ratio EC50 [31]: 21
Ratio EC50 [32]: 5
Ratio EC50 [33]: 1
Ratio EC50 [34]: 1
